Measurements published in patent US10548316B2, “Diarylazole compound and harmful organism control agent” (Nippon Soda Co., Ltd., priority 2015, dated 2020).

Test system: Culex pipiens
Assay: Efficacy test against Culex pipiens
Assay type: in vivo
Conditions: 2 ppm; first-instar larvae; after 1 day
Protocol: (§1) 5 parts of the compound of the present invention, 93.6 parts of dimethylformamide, and 1.4 parts of polyoxyethylene alkylaryl ether were mixed and dissolved to prepare an emulsion (I) of 5% of the active ingredient.
(§2) The insect mortality rate and the control rate were calculated by the following formula. Insect mortality rate (%)=(number of dead insects/number of sample insects)×100 Prevention rate=[1−(Nt)/(Nc)]×100
Emulsion (I) was diluted with water so that the concentration of the compound of the present invention reaches 2 ppm to prepare a chemical solution for test. 20 first-instar larvae of Culex pipiens were released into 100 ml of the chemical solution for test, then the number of dead insects was calculated after 1 day was passed, and the insect mortality rate was calculated by the formula. The test was repeated twice.

| SMILES | insect mortality rate [%] |
| --- | --- |
| CCS(=O)(=O)c1cc(C(F)(F)F)ccc1-n1cc(-c2ccc(OC(F)(F)F)cc2)cn1 [Compound 1-14] | 100 |
| CCS(=O)(=O)c1cc(C(F)(F)F)ccc1-n1ncc(-c2ccc(OC(F)(F)F)cc2)c1C [Compound 1-19] | 100 |
| CCS(=O)(=O)c1cc(C(F)(F)F)ccc1-n1ncc(-c2ccc(C(F)(F)F)nc2)c1C [Compound 1-24] | 100 |

Test system: Pseudaletia separata
Assay: Efficacy test against Pseudaletia separata (artificial diet)
Assay type: in vivo
Conditions: 1 μl emulsion (I) (5% active ingredient) mixed in 0.8 g artificial diet; second-instar larvae; 25° C.; fifth day
Protocol: as §1, §2
0.8 g of commercially available artificial diet (Insecta US, manufactured by Nosan Corporation) and 1 μl of emulsion (1) were well mixed and 0.2 g of the resulting mixture was packed in a plastic test container (1.4 ml) per each treatment group to prepare test feeds.
2 second-instar larvae of Pseudaletia separata were inoculated into each treatment group and sealed with a plastic lid. The plastic test containers were placed in a thermostatic chamber with a temperature of 25° C., and the insect mortality rate and the food intake amount were investigated on the fifth day. The test was repeated twice.
Further, a test under the same conditions except that the compound of the present invention was removed from emulsion (I) was conducted as a solvent control group.

| SMILES | food intake amount in ratio to the solvent control group [%] |
| --- | --- |
| CCS(=O)(=O)c1cccnc1-n1ncc(-c2ccc(OC(F)(F)F)cc2)c1N [Compound 2-10] | ≤ 10 |

Same assay, conditions: in vivo

| SMILES | insect mortality rate [%] |
| --- | --- |
| CCSc1cc(C(F)(F)F)ccc1-n1cc(-c2ccc(C(F)(F)F)cc2)cn1 [Compound 1-1] | 100 |
| CCS(=O)(=O)c1cc(C(F)(F)F)ccc1-n1cc(-c2ccc(C(F)(F)F)cc2)cn1 [Compound 1-2] | 100 |
| CCSc1cc(C(F)(F)F)ccc1-n1ncc(-c2ccc(C(F)(F)F)cc2)c1N [Compound 1-4] | 100 |
| CCS(=O)(=O)c1cc(C(F)(F)F)ccc1-n1ncc(-c2ccc(C(F)(F)F)cc2)c1N [Compound 1-5] | 100 |
| CC[S+]([O-])c1cc(C(F)(F)F)ccc1-n1ncc(-c2ccc(C(F)(F)F)cc2)c1C (stereo not shown) [Compound 1-9] | 100 |
| CCS(=O)(=O)c1cc(C(F)(F)F)ccc1-n1cc(-c2ccc(OC(F)(F)F)cc2)cn1 [Compound 1-14] | 100 |
| CCS(=O)(=O)c1cc(C(F)(F)F)ccc1-n1cc(-c2ccc(C(F)(F)F)nc2)cn1 [Compound 1-15] | 100 |
| CCS(=O)(=O)c1cc(C(F)(F)F)ccc1-n1cc(-c2ccc(C(F)(F)F)cc2F)cn1 [Compound 1-16] | 100 |
| CCS(=O)(=O)c1cc(C(F)(F)F)ccc1-n1ncc(-c2ccc(OC(F)(F)F)cc2)c1C [Compound 1-19] | 100 |
| CCS(=O)(=O)c1cc(C(F)(F)F)ccc1-n1ncc(-c2ccc(OC(F)(F)F)cc2)c1Br [Compound 1-20] | 100 |
| CCS(=O)(=O)c1cc(C(F)(F)F)ccc1-n1cc(-c2ccc(C(F)(F)C(F)(F)F)cc2)cn1 [Compound 1-22] | 100 |
| CCS(=O)(=O)c1cc(C(F)(F)F)ccc1-n1ncc(-c2ccc(OC(F)(F)F)cc2)c1F [Compound 1-23] | 100 |
| CCS(=O)(=O)c1cc(C(F)(F)F)ccc1-n1ncc(-c2ccc(C(F)(F)F)nc2)c1C [Compound 1-24] | 100 |
| CCS(=O)(=O)c1cc(C(F)(F)F)ccc1-n1ncc(-c2ccc(C(F)(F)F)nc2)c1N [Compound 1-25] | 100 |
| CCS(=O)(=O)c1cc(C(F)(F)F)ccc1-n1ncc(-c2cc(C(F)(F)F)cc(C(F)(F)F)c2)c1C [Compound 1-26] | 100 |
| CCS(=O)(=O)c1cc(C(F)(F)F)ccc1-n1cc(-c2cc(C(F)(F)F)cc(C(F)(F)F)c2)cn1 [Compound 1-27] | 100 |
| CCS(=O)(=O)c1cc(C(F)(F)F)ccc1-n1ncc(-c2cc(C(F)(F)F)cc(C(F)(F)F)c2)c1N [Compound 1-28] | 100 |
| CCS(=O)(=O)c1cc(C(F)(F)F)ccc1-n1ncc(-c2cc(C(F)(F)F)cc(C(F)(F)F)c2)c1I [Compound 1-30] | 100 |
| CCS(=O)(=O)c1cc(C(F)(F)F)ccc1-n1ncc(-c2ccc(C(F)(F)C(F)(F)F)cc2)c1N [Compound 1-31] | 100 |
| CCS(=O)(=O)c1cc(C(F)(F)F)ccc1-n1ncc(-c2ccc(SC(F)(F)F)cc2)c1N [Compound 1-32] | 100 |
| CCS(=O)(=O)c1cc(C(F)(F)F)ccc1-n1ncc(-c2cccc(OC(F)(F)F)c2)c1N [Compound 1-34] | 100 |

| SMILES | insect mortality rate [%] |
| --- | --- |
| CCS(=O)(=O)c1cc(C(F)(F)F)ccc1-n1ncc(-c2ccc(C(F)(C(F)(F)F)C(F)(F)F)cc2)c1N [Compound 1-35] | 100 |
| CCS(=O)(=O)c1cc(C(F)(F)F)ccc1-n1ncc(-c2ccc(C(F)(F)F)c(Cl)c2)c1N [Compound 1-36] | 100 |
| CCS(=O)(=O)c1cc(C(F)(F)F)ccc1-n1ncc(-c2ccc(OC(F)(F)F)c(Cl)c2)c1N [Compound 1-38] | 100 |
| CCS(=O)(=O)c1cc(C(F)(F)F)ccc1-n1ncc(-c2ccc(C(F)(F)C(F)(F)F)nc2)c1C [Compound 1-47] | 100 |
| CCS(=O)(=O)c1cc(C(F)(F)F)ccc1-n1cc(-n2cc(C(F)(F)F)cn2)cn1 [Compound 1-50] | 100 |
| CCS(=O)(=O)c1cc(C(F)(F)F)ccc1-n1cc(-n2cc(C(F)(F)C(F)(F)F)cn2)cn1 [Compound 1-51] | 100 |
| CCS(=O)(=O)c1cc(C(F)(F)F)ccc1-n1ncc(-c2ccc(C(F)(F)C(F)(F)F)nc2)c1C#N [Compound 1-52] | 100 |
| CCS(=O)(=O)c1cc(C(F)(F)F)cnc1-n1ncc(-c2ccc(OC(F)(F)F)cc2)c1N [Compound 2-4] | 100 |
| CCS(=O)(=O)c1cc(C(F)(F)F)cnc1-n1ncc(-c2ccc(C(F)(F)F)nc2)c1C [Compound 2-5] | 100 |
| CCS(=O)(=O)c1cc(C(F)(F)F)cnc1-n1cc(-c2ccc(OC(F)(F)F)cc2)cn1 [Compound 2-6] | 100 |
| CCS(=O)(=O)c1cc(C(F)(F)F)cnc1-n1ncc(-c2ccc(OC(F)(F)F)cc2)c1C [Compound 2-7] | 100 |
| CCS(=O)(=O)c1cccnc1-n1ncc(-c2ccc(OC(F)(F)F)cc2)c1C [Compound 2-8] | 100 |
| CCS(=O)(=O)c1cccnc1-n1ncc(-c2ccc(C(F)(F)C(F)(F)F)cc2)c1C [Compound 2-9] | 100 |
| CCS(=O)(=O)c1cccnc1-n1ncc(-c2ccc(OC(F)(F)F)cc2)c1N [Compound 2-10] | 100 |
| CCS(=O)(=O)c1cccnc1-n1ncc(-c2ccc(C(F)(F)C(F)(F)F)cc2)c1N [Compound 2-11] | 100 |
| CCS(=O)(=O)c1cccnc1-n1ncc(-c2ccc(SC(F)(F)F)cc2)c1N [Compound 2-12] | 100 |
| CCS(=O)(=O)c1cccnc1-n1ncc(-c2ccc(C(F)(F)C(F)(F)F)nc2)c1C [Compound 2-16] | 100 |
| CCS(=O)(=O)c1cc(C(F)(F)F)ccc1-c1cnn(-c2ccc(C(F)(F)F)cc2)c1Br [Compound 3-3] | 100 |
| CCSc1cc(C(F)(F)F)ccc1-c1cn(-c2ccc(OC(F)(F)F)cc2)nn1 [Compound 5-1] | 100 |
| CCS(=O)(=O)c1cc(C(F)(F)F)ccc1-c1cn(-c2ccc(OC(F)(F)F)cc2)nn1 [Compound 5-2] | 100 |

Test system: not given
Assay: not given
Conditions: not given

| SMILES | melting point [°C] |
| --- | --- |
| CCSc1cc(C(F)(F)F)ccc1-n1nnc(-c2ccc(C(F)(F)F)cc2)c1C [Compound 4-5, 1-(2-(Ethylthio)-4-(trifluoromethyl)phenyl)-5-methyl-4-(4-(trifluoromethyl)phenyl)-1H-1,2,3-triazole] | 79 to 80 |
| CCS(=O)(=O)c1cc(C(F)(F)F)ccc1-n1nnc(-c2ccc(C(F)(F)F)cc2)c1C [Compound 4-6, 1-(2-(Ethylsulfonyl)-4-(trifluoromethyl)phenyl)-5-methyl-4-(4-(trifluoromethyl)phenyl)-1H-1,2,3-triazole] | 154 to 156 |
| CCSc1cc(C(F)(F)F)ccc1-n1cc(-c2ccc(OC(F)(F)F)cc2)nn1 [Compound 4-7, 1-(2-(Ethylthio)-4-(trifluoromethyl)phenyl)-4-(4-(trifluoromethoxy)phenyl)-1H-1,2,3-triazole] | 110 to 111 |
| CCS(=O)(=O)c1cc(C(F)(F)F)ccc1-n1cc(-c2ccc(OC(F)(F)F)cc2)nn1 [Compound 4-8, 1-(2-(Ethylsulfonyl)-4-(trifluoromethyl)phenyl)-4-(4-(trifluoromethoxy)phenyl)-1H-1,2,3-triazole] | 178 to 179 |
